Assay results taken from PMC8961527, “Protein Binding of Benzofuran Derivatives: A CD Spectroscopic and In Silico Comparative Study of the Effects of 4-Nitrophenyl Functionalized Benzofurans and Benzodifurans on BSA Protein Structure” (Biomolecules, 2022).

Columns and labels:
[1] = target: T1, bovine serum albumin (BSA) (Bos taurus, UniProt P02769); experiment: intrinsic tryptophan fluorescence quenching titration (apparent kD); supported by CD spectra and CD melting (ΔTm −[…] °C); format: binding
T1 construct: gene ALB

[2] = target: T1, bovine serum albumin (BSA); experiment: intrinsic tryptophan fluorescence quenching titration (apparent kD); supported by CD spectra and CD melting (ΔTm +[…] °C); format: binding

T1 sequence (P02769 25-607): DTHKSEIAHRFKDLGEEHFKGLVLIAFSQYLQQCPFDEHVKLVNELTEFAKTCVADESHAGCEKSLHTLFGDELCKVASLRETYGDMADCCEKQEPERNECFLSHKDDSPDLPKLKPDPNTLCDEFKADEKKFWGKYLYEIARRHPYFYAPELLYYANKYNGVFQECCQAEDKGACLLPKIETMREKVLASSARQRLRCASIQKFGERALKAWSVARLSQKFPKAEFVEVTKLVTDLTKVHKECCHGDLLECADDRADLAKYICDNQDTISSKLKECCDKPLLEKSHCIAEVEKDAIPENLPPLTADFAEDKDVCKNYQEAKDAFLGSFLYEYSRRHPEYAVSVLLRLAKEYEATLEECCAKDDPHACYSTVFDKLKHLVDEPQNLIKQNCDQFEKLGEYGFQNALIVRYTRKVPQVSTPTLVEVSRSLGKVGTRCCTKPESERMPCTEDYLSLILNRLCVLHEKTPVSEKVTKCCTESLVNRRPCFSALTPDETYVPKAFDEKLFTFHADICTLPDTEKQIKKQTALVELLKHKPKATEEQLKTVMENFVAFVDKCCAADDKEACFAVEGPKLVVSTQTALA

Kd [1] [nM]	Kd [2] [nM]	Compound
142 ± 64.6	–	CCCCOC(=O)c1c(N)oc2c(-c3ccc([N+](=O)[O-])cc3)c3c(C(=O)OCCCC)c(N)oc3cc12 [BDF1]
–	28.4 ± 10.1	CCCCOC(=O)c1c(N)oc2ccc(O)c(-c3ccc([N+](=O)[O-])cc3)c12 [BF1]
